Laboratory results as given in patent US20020176882A1, “Additive the improvement and/or stabilization of the keeping quality of microbially perishable products” (priority 1997, published 2002).

Assays:
[1] = tested on: aerobic microorganisms (total germ count); test: quantitative suspension assay, total germ count; type: cell-based; details: control 10^8/ml
Excerpt: (§1) Bacteriological assay methods for additives quantitative suspension assay II (suspension test)
(§2) Microorganisms: aerobic microorganisms (total germ count), Enterobacteriaceae, Enterococci, Lactobacilli, yeasts, molds. These methods are capable of determining the effects of the additives as a function of dosage and duration of action using different microorganisms on different nutrient media.
(§3) Quantitative suspension assay II—suspension test a) Inoculate test germ suspension with the desired test germ, e.g., 10^6/ml, expose for 1-60 min. Place desired formulation to be tested into desiganted germ suspension tubes (different percentages). Await end of exposure times and pour or inoculate into the appropriate agar plates, depending on the germ. […]
(§4) b) Treat the test germ suspension with the desired formulation to be tested (see a) prior to inoculating the test germs (see a). Await end of exposure times and then inoculate with the respective test germs, and inoculate or pour into the appropriate agar plates depending on the test germ.

Enterobacteria = test: quantitative suspension assay, Enterobacteria; type: cell-based, Enterobacteriaceae; details: control 10^8/ml
Excerpt: as §1, §2, §3, §4

Enterococci = test: quantitative suspension assay, Enterococci; type: cell-based; details: control 10^8/ml
Excerpt: as §1, §2, §3, §4

Lactobacilli = test: quantitative suspension assay, Lactobacilli; type: cell-based; details: control 10^5/ml
Excerpt: as §1, §2, §3, §4

yeasts = test: quantitative suspension assay, yeasts; type: cell-based; details: control 10^5/ml
Excerpt: as §1, §2, §3, §4

molds = test: quantitative suspension assay, molds; type: cell-based; details: control 10^5/ml
Excerpt: as §1, §2, §3, §4
Further: test concentration or dose not given here.

Compound: OCC(O)CO [Glycerol]
- total germ count ([1]; 5 min exp. time): 10^6 /ml
- total germ count ([1]; 15 min exp. time): 10^8 /ml
- total germ count ([1]; 60 min exp. time): 10^8 /ml
- Enterobacteria germ count (Enterobacteria; 5 min exp. time): 10^7 /ml
- Enterobacteria germ count (Enterobacteria; 15 min exp. time): 10^7 /ml
- Enterobacteria germ count (Enterobacteria; 60 min exp. time): 10^7 /ml
- Enterococci germ count (Enterococci; 5 min exp. time): 10^8 /ml
- Enterococci germ count (Enterococci; 15 min exp. time): 10^8 /ml
- Enterococci germ count (Enterococci; 60 min exp. time): 10^8 /ml
- Lactobacilli germ count (Lactobacilli; 5 min exp. time): 10^5 /ml
- Lactobacilli germ count (Lactobacilli; 15 min exp. time): 10^5 /ml
- Lactobacilli germ count (Lactobacilli; 60 min exp. time): 10^5 /ml
- yeasts germ count (yeasts; 5 min exp. time): 10^5 /ml
- yeasts germ count (yeasts; 15 min exp. time): 10^5 /ml
- yeasts germ count (yeasts; 60 min exp. time): 10^5 /ml
- molds germ count (molds; 5 min exp. time): 10^5 /ml
- molds germ count (molds; 15 min exp. time): 10^5 /ml
- molds germ count (molds; 60 min exp. time): 10^5 /ml

Compound: CC(O)C(=O)O (stereo not drawn) [Lactic acid]
- total germ count ([1]; 5 min exp. time): 10^7 /ml
- total germ count ([1]; 15 min exp. time): 10^7 /ml
- total germ count ([1]; 60 min exp. time): 10^7 /ml
- Enterobacteria germ count (Enterobacteria; 5 min exp. time): 10^6 /ml
- Enterobacteria germ count (Enterobacteria; 15 min exp. time): 10^6 /ml
- Enterobacteria germ count (Enterobacteria; 60 min exp. time): 10^6 /ml
- Enterococci germ count (Enterococci; 5 min exp. time): 10^7 /ml
- Enterococci germ count (Enterococci; 15 min exp. time): 10^7 /ml
- Enterococci germ count (Enterococci; 60 min exp. time): 10^7 /ml
- Lactobacilli germ count (Lactobacilli; 5 min exp. time): 10^5 /ml
- Lactobacilli germ count (Lactobacilli; 15 min exp. time): 10^4 /ml
- Lactobacilli germ count (Lactobacilli; 60 min exp. time): 10^4 /ml
- yeasts germ count (yeasts; 5 min exp. time): 10^5 /ml
- yeasts germ count (yeasts; 15 min exp. time): 10^5 /ml
- yeasts germ count (yeasts; 60 min exp. time): 10^5 /ml
- molds germ count (molds; 5 min exp. time): 10^5 /ml
- molds germ count (molds; 15 min exp. time): 10^5 /ml
- molds germ count (molds; 60 min exp. time): 10^5 /ml

Compound: CC(O)CO (stereo not drawn) [Propylene glycol]
- total germ count ([1]; 5 min exp. time): 10^9 /ml
- total germ count ([1]; 15 min exp. time): 10^9 /ml
- total germ count ([1]; 60 min exp. time): 10^9 /ml
- Enterobacteria germ count (Enterobacteria; 5 min exp. time): 10^8 /ml
- Enterobacteria germ count (Enterobacteria; 15 min exp. time): 10^8 /ml
- Enterobacteria germ count (Enterobacteria; 60 min exp. time): 10^8 /ml
- Enterococci germ count (Enterococci; 5 min exp. time): 10^8 /ml
- Enterococci germ count (Enterococci; 15 min exp. time): 10^8 /ml
- Enterococci germ count (Enterococci; 60 min exp. time): 10^8 /ml
- Lactobacilli germ count (Lactobacilli; 5 min exp. time): 10^5 /ml
- Lactobacilli germ count (Lactobacilli; 15 min exp. time): 10^5 /ml
- Lactobacilli germ count (Lactobacilli; 60 min exp. time): 10^5 /ml
- yeasts germ count (yeasts; 5 min exp. time): 10^5 /ml
- yeasts germ count (yeasts; 15 min exp. time): 10^5 /ml
- yeasts germ count (yeasts; 60 min exp. time): 10^5 /ml
- molds germ count (molds; 5 min exp. time): 10^5 /ml
- molds germ count (molds; 15 min exp. time): 10^5 /ml
- molds germ count (molds; 60 min exp. time): 10^5 /ml

Compound: OCc1ccccc1 [Benzyl alcohol]
- total germ count ([1]; 5 min exp. time): 10^8 /ml
- total germ count ([1]; 15 min exp. time): 10^7 /ml
- total germ count ([1]; 60 min exp. time): 10^7 /ml
- Enterobacteria germ count (Enterobacteria; 5 min exp. time): 10^7 /ml
- Enterobacteria germ count (Enterobacteria; 15 min exp. time): 10^7 /ml
- Enterobacteria germ count (Enterobacteria; 60 min exp. time): 10^7 /ml
- Enterococci germ count (Enterococci; 5 min exp. time): 10^8 /ml
- Enterococci germ count (Enterococci; 15 min exp. time): 10^7 /ml
- Enterococci germ count (Enterococci; 60 min exp. time): 10^7 /ml
- Lactobacilli germ count (Lactobacilli; 5 min exp. time): 10^5 /ml
- Lactobacilli germ count (Lactobacilli; 15 min exp. time): 10^5 /ml
- Lactobacilli germ count (Lactobacilli; 60 min exp. time): 10^5 /ml
- yeasts germ count (yeasts; 5 min exp. time): 10^5 /ml
- yeasts germ count (yeasts; 15 min exp. time): 10^4 /ml
- yeasts germ count (yeasts; 60 min exp. time): 10^4 /ml
- molds germ count (molds; 5 min exp. time): 10^5 /ml
- molds germ count (molds; 15 min exp. time): 10^4 /ml
- molds germ count (molds; 60 min exp. time): 10^4 /ml

Compound: tannin [Formulation 1a]
- total germ count ([1]; 5 min exp. time): 10^6 /ml
- total germ count ([1]; 15 min exp. time): 10^6 /ml
- total germ count ([1]; 60 min exp. time): 10^6 /ml
- Enterobacteria germ count (Enterobacteria; 5 min exp. time): 10^6 /ml
- Enterobacteria germ count (Enterobacteria; 15 min exp. time): 10^6 /ml
- Enterobacteria germ count (Enterobacteria; 60 min exp. time): 10^6 /ml
- Enterococci germ count (Enterococci; 5 min exp. time): 10^7 /ml
- Enterococci germ count (Enterococci; 15 min exp. time): 10^6 /ml
- Enterococci germ count (Enterococci; 60 min exp. time): 10^6 /ml
- Lactobacilli germ count (Lactobacilli; 5 min exp. time): 10^5 /ml
- Lactobacilli germ count (Lactobacilli; 15 min exp. time): 10^4 /ml
- Lactobacilli germ count (Lactobacilli; 60 min exp. time): 10^4 /ml
- yeasts germ count (yeasts; 5 min exp. time): 10^4 /ml
- yeasts germ count (yeasts; 15 min exp. time): 10^4 /ml
- yeasts germ count (yeasts; 60 min exp. time): 10^4 /ml
- molds germ count (molds; 5 min exp. time): 10^4 /ml
- molds germ count (molds; 15 min exp. time): 10^4 /ml
- molds germ count (molds; 60 min exp. time): 10^4 /ml
